Test results taken from patent US8026228B2, “Estrogenic compounds in combination with progestogenic compounds in hormone-replacement therapy” (Pantarhei Bioscience B.V., priority 2001, dated 2011).

Tests used:
[1] = molecular target: T1, human sex Hormone Binding Globulin (SHBG) (Homo sapiens, UniProt P04278); assay: Competitive steroid-binding assay; details: [^3H]DHT or [^3H]estradiol as labeled ligands; order ethinylestradiol, 17β-estradiol, testosterone, 5α-dihydrotestosterone
T1 construct: Human SHBG was purified from transgenic mouse serum; made in house; host or cells: transgenic mouse (serum)
T1 sequence (P04278 30-402): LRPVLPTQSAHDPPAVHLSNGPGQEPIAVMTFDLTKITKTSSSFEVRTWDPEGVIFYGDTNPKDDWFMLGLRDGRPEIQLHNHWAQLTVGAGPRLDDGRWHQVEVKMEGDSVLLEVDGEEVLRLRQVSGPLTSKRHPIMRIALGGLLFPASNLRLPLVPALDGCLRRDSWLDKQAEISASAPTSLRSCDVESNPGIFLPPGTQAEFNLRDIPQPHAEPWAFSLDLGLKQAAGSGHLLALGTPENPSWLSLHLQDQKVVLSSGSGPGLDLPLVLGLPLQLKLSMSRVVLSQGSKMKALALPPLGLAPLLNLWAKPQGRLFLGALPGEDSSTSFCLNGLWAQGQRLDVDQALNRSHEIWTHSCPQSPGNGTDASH
Experimental: Human SHBG was treated for 30 min at room temperature with a dextran-coated charcoal (DCC) suspension in phosphate buffered saline (PBS) to remove any steroid ligand. After centrifugation (2,000×g for 10 min) to sediment the DCC, the supernatant containing the human SHBG was diluted in PBS to a concentration of 1 nM based on its steroid binding capacity.
The average amounts of [^3H]labeled ligands bound to SHBG at each concentration of competitor (B) were expressed as a percentage of the average amounts of [^3H]labeled ligands bound to SHBG in the absence of competitor (B0), and were plotted against the concentration of competitor in each assay tube.

[2] = system: estrogen receptors in the human endometrium; details: Tseng et al. 1978; cited from earlier work
[3] = intravenous, two adult women, Fishman et al. 1970; cited from earlier work
[4] = molecular target: T2, rat uterine cytosol estrogen receptor (Rattus norvegicus, UniProt P06211); details: Martucci et al. 1976; cited from earlier work
T2 construct: rat uterine cytosol estrogen receptor; host or cells: rat uterus (cytosol; nuclear fraction)
T2 sequence (P06211 1-600): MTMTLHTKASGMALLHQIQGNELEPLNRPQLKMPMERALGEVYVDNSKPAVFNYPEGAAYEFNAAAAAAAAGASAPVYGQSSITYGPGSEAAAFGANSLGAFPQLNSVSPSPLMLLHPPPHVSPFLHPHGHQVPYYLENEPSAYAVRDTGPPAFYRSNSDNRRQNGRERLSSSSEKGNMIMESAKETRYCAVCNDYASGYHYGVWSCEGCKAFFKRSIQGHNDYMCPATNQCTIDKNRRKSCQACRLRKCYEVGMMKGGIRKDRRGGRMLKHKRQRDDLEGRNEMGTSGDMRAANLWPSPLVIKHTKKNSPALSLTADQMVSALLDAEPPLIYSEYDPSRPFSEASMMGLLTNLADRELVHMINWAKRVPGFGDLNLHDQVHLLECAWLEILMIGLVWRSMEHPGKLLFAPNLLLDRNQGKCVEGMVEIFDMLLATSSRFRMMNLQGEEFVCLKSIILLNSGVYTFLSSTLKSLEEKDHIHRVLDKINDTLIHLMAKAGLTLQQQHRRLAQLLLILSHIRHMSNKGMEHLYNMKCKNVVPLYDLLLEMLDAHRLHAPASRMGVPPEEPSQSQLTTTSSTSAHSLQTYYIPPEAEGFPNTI

[5] = system: morphine-dependent ovariectomized (OVX) rat; assay: Hot flush model: naloxone-induced tail skin temperature rise; assay type: in vivo
Experimental: The morphine-dependent ovariectomized (OVX) rat was used as a model for postmenopausal hot flush. The potency of estetrol (E4) to prevent tail skin temperature rises, normally accompanied by a drop in core body temperature, after naloxone-induced opiate withdrawal was tested. 17α-ethinyl-estradiol (EE) and vehicle (hydroxy propyl-beta-cyclodextrin 20% wt/vol) served as controls in this bioassay.
The morphine-dependent ovariectomized (OVX) rat model has been proposed by several investigators (Katovich et al, 1986, Maturitas, 67-76; Merchenthaler et al. 1998, Maturitas, 307-316) as an animal model for the hot flush. During opiate withdrawal with the morphine antagonist naloxone, tail skin temperature (TST) rises and this rise is accompanied by a drop in core body temperature. In addition, the temperature changes are accompanied by surges in LH and a transient tachycardia. These events are similar in magnitude and temporal nature to those observed in the menopausal hot flush.
Three days prior to the commencement of dosing, animals were anesthetized using a ketamine/xylazine anesthetic mixture and underwent a bilateral ovariectomy. A section of hair on the dorsal surface was shaved and an incision made overlying the lumbar region of the spine. The skin was separated from the underlying fascia so that a second incision could be made through the abdominal musculature approximately caudal to the kidneys. The ovaries were then exteriorized and removed and the musculature was closed with a single suture. The skin incision was closed using surgical staples. Six rats per treatment group were dosed once per day for eight consecutive days prior to and including the day of naloxone-induced opiate withdrawal (the hot flush session). The dosing commenced three days after surgical removal of the ovaries and was administered by oral gavage using a syringe and stainless steel gavage needle. […]
For the hot flush manipulations the animals were placed in a test cage. […] The tail-skin temperature was recorded until it was stable and the animals were then injected with naloxone HCl (1 mg/kg). […]

ovariectomized rats = assay: Vaginal cornification bioassay, oral administration; assay type: in vivo, rat; details: relatively low doses 0.1 and 0.3 mg/kg/day, compared with EE
Source text: Uterine weight increase in the rat is more commonly used as a measure of estrogenicity. […] In the early 1920s it was discovered that follicular fluid from the pig ovary contained a factor(s) that caused cornification/keratinization of the vaginal epithelium in the rat (Allen and Doisy, 1923, JAMA, 81, 819-821; Allen and Doisy, 1924, Am. J. Physiol., 69, 577-588). The so-called vaginal cornification response in rats subsequently provided a bioassay for testing estrogenicity. Vaginal epithelial cornification/keratinization in ovariectomized rats can be produced only by compounds considered to be true estrogens (Jones et al, 1973, Fert. Steril. 24, 284-291). […] Adult intact female CD rats were ovariectomized to induce estrogen deficiency. […] Castrate vaginal smears are indicative that complete ovariectomy was achieved. Treatment commenced following completion of the 7 days of smearing (day 0=first day of dosing). Animals were dosed, once daily for 7 consecutive days. Daily vaginal lavages continued to be obtained for 7 days after dosing was initiated in order to detect vaginal cornification, as an indication of an estrogenic response. […] Data are expressed as the number of rats showing vaginal cornification over the number of rats (ratio) treated.

immature rat uterus = details: continuous administration from a subcutaneous depot, Martucci et al. 1977; cited from earlier work
Sham- and OVX-rats [6] = assay: Osteoporosis model: ex vivo pQCT densitometry of proximal tibiae; assay type: in vivo, rat; details: po 0.1-[…], 4 weeks
Experimental: (§1) The ovariectomized aged rat was used as a model for the human disease osteoporosis. This is an established animal model, recommended by the United States Food and Drug Administration (FDA), to evaluate and assess potential agents for osteoporosis prevention and therapy. The anti-resorptive efficacy of estetrol (E4) was tested by ex vivo measuring total and trabecular bone mineral density and bone strength after 4 weeks of treatment at necropsy. 17α-ethinyl-estradiol (EE) and vehicle (1% ethanol/arachidis oil) served as controls in this bioassay.
Three months old female Sprague-Dawley rats were either sham-operated (Sham) or ovariectomized (OVX) one day prior to commencement of the dosing study. Animals were anesthetized using a ketamine/xylazine anesthetic mixture and underwent a bilateral ovariectomy or were sham-treated. […]
Ex vivo peripheral Quantitative Computed Tomography (pQCT) was performed on the excised left tibiae using a Stratec XCT-RM and associated software (Stratec Medizintechnik GmbH, Pforzheim, Germany, software version 5.40). […] The scans were analyzed using a threshold for delineation of the external boundary. The total and trabecular bone mineral content, area and density at each site were determined. […]
(§2) Data are expressed as the mean values obtained for each group (n=10).

[7] = system: human breast cancer cells (MCF-7); details: in vitro cell proliferation, Jozan et al. 1981; cited from earlier work
Sham- and OVX-rats [8] = assay: Osteoporosis model: indentation test of distal femur (bone strength); assay type: in vivo, rat; details: oral treatment, dose-dependent
Experimental: as §1
Three months old female Sprague-Dawley rats were either sham-operated (Sham) or ovariectomized (OVX) one day prior to commencement of the dosing study. Animals were anesthetized using a ketamine/xylazine anesthetic mixture and underwent a bilateral ovariectomy or were sham-treated. A section of hair on the dorsal surface was shaved and an incision made overlying the lumbar region of the spine. The skin was separated from the underlying fascia so that a second incision could be made through the abdominal musculature approximately caudal to the kidneys. […]
as §2
The maximum load, stiffness and energy absorbed were determined from load displacement curves. Ultimate strength was calculated by dividing the maximum load by the indenter area. […]

[9] = molecular target: T3, rat uterine nuclear estrogen receptor (Rattus norvegicus, UniProt P06211); details: Martucci et al. 1976; cited from earlier work
T3 construct: rat uterine cytosol estrogen receptor; host or cells: rat uterus (cytosol; nuclear fraction)
T3 sequence (P06211 1-600): T2 sequence (P06211 1-600)

SMILES: C[C@]12CCC(=O)C[C@@H]1CC[C@@H]1[C@@H]2CC[C@]2(C)[C@@H](O)CC[C@@H]12 [5α-dihydrotestosterone]
- relative binding affinity for human SHBG [1]: in this order, show an increased relative binding affinity

SMILES: C[C@]12CC[C@H]3[C@@H](CCC4=CC(=O)CC[C@@]43C)[C@@H]1CC[C@@H]2O [testosterone]
- relative binding affinity for human SHBG [1]: in this order, show an increased relative binding affinity

SMILES: C[C@]12CC[C@@H]3c4ccc(O)cc4CC[C@H]3[C@@H]1[C@@H](O)[C@@H](O)[C@@H]2O [E4, 1,3,5(10)-estratrien-3,15α,16α,17β-tetrol]
- relative binding, of 17β-estradiol [2]: 1.5%
- excretion [3]: rapidly and completely excreted in urine as the glucosiduronate
- metabolism [3]: virtually no metabolism except for conjugation took place
- relative binding affinity, of 17β-estradiol (100%) [4]: 0.5%
- effect on naloxone-induced TST, dose dependence ([5]; oral treatment, all doses): clear dose-dependent effect
- effect on naloxone-induced TST compared with EE ([5]; po 3.0 mg/kg/day (highest dose)): suppressive response similar to the potent oral estrogen, 17α-ethinyl estradiol (EE)
- effect on naloxone-induced TST ([5]; po 0.3, 1.0 and 3.0 mg/kg/day (three highest doses)): attenuated the TST
- onset of vaginal cornification (animals responding at days 1-3) (ovariectomized rats): as fast as in EE-treated animals
- uterotrophic activity (immature rat uterus): very weak uterotrophic activity
- relative binding affinity for human SHBG [1]: negligible
- total and trabecular bone mineral content and bone mineral density, dose dependence (Sham- and OVX-rats [6]): consistent dose-dependent increase
- agonistic potency, of the magnitude observed for 17β-estradiol [7]: 2%
- declines in maximum load, stiffness, energy and ultimate strength (Sham- and OVX-rats [8]): prevented the declines
- relative binding affinity, of 17β-estradiol (100%) [9]: 0.3%
